Patent publication US11173151B2, “Substituted triazole derivatives and uses thereof” (BAYER AKTIENGESELLSCHAFT, priority 2017, dated 2021)

Tests used:
[1] = molecular target: T1, human V1a receptor (Homo sapiens, UniProt P37288); assay: Cellular in vitro assay for determining vasopressin receptor activity, V1a receptor cell line (CHO, aequorin luminescence); format: cell-based; conditions: for IC50: CHO cell line transfected with human V1a receptor, [Arg]-vasopressin at EC50 concentration, read-out: IC50 hV1a; for ratio IC50 hV2/hV1a: selectivity ratio IC50 hV2 / IC50 hV1a
T1 construct: expressed in transfected cells; host or cells: CHO K1 (ATCC), also stably transfected with a modified aequorin
Procedure, shortened: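 CHO K1/aequorin cells, coelenterazine 5 μg/ml o/n; cpd 10 min; [Arg]-vasopressin at EC50; luminescence read immediately; IC50.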

[2] = molecular target: T2, human V2 receptor (Homo sapiens, UniProt P30518); assay: Cellular in vitro assay for determining vasopressin receptor activity, V2 receptor cell line (CHO, CRE-luciferase); format: cell-based; conditions: CHO cell line transfected with human V2 receptor; [Arg8]-vasopressin at EC50 concentration, 3 hours; read-out: IC50 hV2
T2 construct: expressed in transfected cells; host or cells: CHO K1 (ATCC) expressing firefly luciferase under a CRE-responsive promoter
T2 sequence (P30518 whole entry): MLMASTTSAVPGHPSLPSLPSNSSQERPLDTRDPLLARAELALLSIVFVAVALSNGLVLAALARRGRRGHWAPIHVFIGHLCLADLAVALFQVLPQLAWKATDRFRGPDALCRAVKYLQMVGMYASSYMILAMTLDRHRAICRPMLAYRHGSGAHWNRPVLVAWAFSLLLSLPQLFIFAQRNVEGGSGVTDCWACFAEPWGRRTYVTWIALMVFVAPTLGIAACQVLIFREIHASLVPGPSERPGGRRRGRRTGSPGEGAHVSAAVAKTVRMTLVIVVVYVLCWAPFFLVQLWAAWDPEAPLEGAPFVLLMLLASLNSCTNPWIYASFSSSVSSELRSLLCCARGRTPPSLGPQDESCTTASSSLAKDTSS

T1 sequence (P37288 whole entry): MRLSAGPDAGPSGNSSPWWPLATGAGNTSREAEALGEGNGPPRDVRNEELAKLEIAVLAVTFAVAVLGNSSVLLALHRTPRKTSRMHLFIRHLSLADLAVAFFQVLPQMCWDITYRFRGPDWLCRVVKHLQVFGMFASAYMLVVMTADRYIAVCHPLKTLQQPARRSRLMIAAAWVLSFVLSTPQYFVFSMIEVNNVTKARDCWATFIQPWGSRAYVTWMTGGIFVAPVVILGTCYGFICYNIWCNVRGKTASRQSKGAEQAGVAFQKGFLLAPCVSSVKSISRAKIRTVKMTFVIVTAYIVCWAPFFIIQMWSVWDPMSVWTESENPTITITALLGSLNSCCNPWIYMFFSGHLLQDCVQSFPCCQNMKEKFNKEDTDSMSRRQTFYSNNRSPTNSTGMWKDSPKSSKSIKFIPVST

SMILES	IC50 [1] [nM]	ratio IC50 hV2/hV1a [1]	IC50 [2] [nM]
O=C1NCCN1CCNc1ccncc1-n1cnc(Cn2nc(-c3ccc(Cl)cc3)n(C[C@H](O)C(F)(F)F)c2=O)n1 [Example 8, 5-(4-Chlorophenyl)-2-{[1-(4-{[2-(2-oxoimidazolidin-1-yl)ethyl]amino}pyridin-3-yl)-1H-1,2,4-triazol-3-yl]methyl}-4-[(2S)-3,3,3-trifluoro-2-hydroxypropyl]-2,4-dihydro-3H-1,2,4-triazol-3-one]	585	5.1	3000
O=c1n(Cc2ncn(-c3cnccc3N3CCC(F)(F)CC3)n2)nc(-c2ccc(Cl)cc2)n1C[C@H](O)C(F)(F)F [Example 9, 5-(4-Chlorophenyl)-2-({1-[4-(4,4-difluoropiperidin-1-yl)pyridin-3-yl]-1H-1,2,4-triazol-3-yl}methyl)-4-[(2S)-3,3,3-trifluoro-2-hydroxypropyl]-2,4-dihydro-3H-1,2,4-triazol-3-one]	6.5	43.8	285
O=c1n(Cc2ncn(-c3cnccc3NCC(F)(F)F)n2)nc(-c2ccc(Cl)cc2)n1C[C@H](O)C(F)(F)F [Example 10, 5-(4-Chlorophenyl)-2-[(1-{4-[(2,2,2-trifluoroethyl)amino]pyridin-3-yl}-1H-1,2,4-triazol-3-yl)methyl]-4-[(2S)-3,3,3-trifluoro-2-hydroxypropyl]-2,4-dihydro-3H-1,2,4-triazol-3-one]	235	1.9	445
O=c1n(Cc2ncn(-c3cnccc3NCCC(F)(F)F)n2)nc(-c2ccc(Cl)cc2)n1C[C@H](O)C(F)(F)F [Example 11, 5-(4-Chlorophenyl)-4-[(2S)-3,3,3-trifluoro-2-hydroxypropyl]-2-[(1-{4-[(3,3,3-trifluoropropyl)amino]pyridin-3-yl}-1H-1,2,4-triazol-3-yl)methyl]-2,4-dihydro-3H-1,2,4-triazol-3-one]	958	0.4	410
CC(F)(F)CNc1ccncc1-n1cnc(Cn2nc(-c3ccc(Cl)cc3)n(C[C@H](O)C(F)(F)F)c2=O)n1 [Example 12, 5-(4-Chlorophenyl)-2-[(1-{4-[(2,2-difluoropropyl)amino]pyridin-3-yl}-1H-1,2,4-triazol-3-yl)methyl]-4-[(2S)-3,3,3-trifluoro-2-hydroxypropyl]-2,4-dihydro-3H-1,2,4-triazol-3-one]	727	0.5	370
CC1(C)CN(c2ccncc2-n2cnc(Cn3nc(-c4ccc(Cl)cc4)n(C[C@H](O)C(F)(F)F)c3=O)n2)CCN1 [Example 14, 5-(4-Chlorophenyl)-2-({1-[4-(3,3-dimethylpiperazin-1-yl)pyridin-3-yl]-1H-1,2,4-triazol-3-yl}methyl)-4-[(2S)-3,3,3-trifluoro-2-hydroxypropyl]-2,4-dihydro-3H-1,2,4-triazol-3-one]	278	19.2	5330
O=c1n(Cc2ncn(-c3cnccc3N3CCOCC3)n2)nc(-c2ccc(Cl)cc2)n1C[C@H](O)C(F)(F)F [Example 15, 5-(4-Chlorophenyl)-2-({1-[4-(morpholin-4-yl)pyridin-3-yl]-1H-1,2,4-triazol-3-yl}methyl)-4-[(2S)-3,3,3-trifluoro-2-hydroxypropyl]-2,4-dihydro-3H-1,2,4-triazol-3-one]	19.3	40.8	785
CC(C)(C)OC(=O)CNc1ccncc1-n1cnc(Cn2nc(-c3ccc(Cl)cc3)n(C[C@H](O)C(F)(F)F)c2=O)n1 [Example 16, Tert-butyl N-{3-[3-({3-(4-chlorophenyl)-5-oxo-4-[(2S)-3,3,3-trifluoro-2-hydroxypropyl]-4,5-dihydro-1H-1,2,4-triazol-1-yl}methyl)-1H-1,2,4-triazol-1-yl]pyridin-4-yl}glycinate]	79.5	19.5	1550
NC(=O)CNc1ccncc1-n1cnc(Cn2nc(-c3ccc(Cl)cc3)n(C[C@H](O)C(F)(F)F)c2=O)n1 [Example 17, N^2-{3-[3-({3-(4-Chlorophenyl)-5-oxo-4-[(2S)-3,3,3-trifluoro-2-hydroxypropyl]-4,5-dihydro-1H-1,2,4-triazol-1-yl}methyl)-1H-1,2,4-triazol-1-yl]pyridin-4-yl}glycinamide]	2250	1.3	2850
O=c1n(Cc2ncn(-c3cnccc3NCC3CS(=O)(=O)C3)n2)nc(-c2ccc(Cl)cc2)n1C[C@H](O)C(F)(F)F [Example 18, 5-(4-Chlorophenyl)-2-{[1-(4-{[(1,1-dioxidothietan-3-yl)methyl]amino}pyridin-3-yl)-1H-1,2,4-triazol-3-yl]methyl}-4-[(2S)-3,3,3-trifluoro-2-hydroxypropyl]-2,4-dihydro-3H-1,2,4-triazol-3-one]	23.7	82.3	1950
CC(C)(C)OC(=O)CCNc1ccncc1-n1cnc(Cn2nc(-c3ccc(Cl)cc3)n(C[C@H](O)C(F)(F)F)c2=O)n1 [Example 19, Tert-butyl N-{3-[3-({3-(4-chlorophenyl)-5-oxo-4-[(2S)-3,3,3-trifluoro-2-hydroxypropyl]-4,5-dihydro-1H-1,2,4-triazol-1-yl}methyl)-1H-1,2,4-triazol-1-yl]pyridin-4-yl}-beta-alaninate]	430	5.2	2250
O=C(O)CCNc1ccncc1-n1cnc(Cn2nc(-c3ccc(Cl)cc3)n(C[C@H](O)C(F)(F)F)c2=O)n1 [Example 20, N-{3-[3-({3-(4-Chlorophenyl)-5-oxo-4-[(2S)-3,3,3-trifluoro-2-hydroxypropyl]-4,5-dihydro-1H-1,2,4-triazol-1-yl}methyl)-1H-1,2,4-triazol-1-yl]pyridin-4-yl}-beta-alanine]	4350	1.4	5920
NC(=O)CCNc1ccncc1-n1cnc(Cn2nc(-c3ccc(Cl)cc3)n(C[C@H](O)C(F)(F)F)c2=O)n1 [Example 21, N^3-{3-[3-({3-(4-Chlorophenyl)-5-oxo-4-[(2S)-3,3,3-trifluoro-2-hydroxypropyl]-4,5-dihydro-1H-1,2,4-triazol-1-yl}methyl)-1H-1,2,4-triazol-1-yl]pyridin-4-yl}-beta-alaninamide]	840	1.8	1480
NC(=O)[C@H]1CCCN1c1ccncc1-n1cnc(Cn2nc(-c3ccc(Cl)cc3)n(C[C@H](O)C(F)(F)F)c2=O)n1 [Example 22, 1-{3-[3-({3-(4-Chlorophenyl)-5-oxo-4-[(2S)-3,3,3-trifluoro-2-hydroxypropyl]-4,5-dihydro-1H-1,2,4-triazol-1-yl}methyl)-1H-1,2,4-triazol-1-yl]pyridin-4-yl}-D-prolinamide]	250	2.8	690
NC(=O)[C@@H]1CCCN1c1ccncc1-n1cnc(Cn2nc(-c3ccc(Cl)cc3)n(C[C@H](O)C(F)(F)F)c2=O)n1 [Example 23, 1-{3-[3-({3-(4-Chlorophenyl)-5-oxo-4-[(2S)-3,3,3-trifluoro-2-hydroxypropyl]-4,5-dihydro-1H-1,2,4-triazol-1-yl}methyl)-1H-1,2,4-triazol-1-yl]pyridin-4-yl}-L-prolinamide]	710	6.0	4250
NC(=O)[C@H]1CC(F)(F)CN1c1ccncc1-n1cnc(Cn2nc(-c3ccc(Cl)cc3)n(C[C@H](O)C(F)(F)F)c2=O)n1 [Example 24, 1-{3-[3-({3-(4-Chlorophenyl)-5-oxo-4-[(2S)-3,3,3-trifluoro-2-hydroxypropyl]-4,5-dihydro-1H-1,2,4-triazol-1-yl}methyl)-1H-1,2,4-triazol-1-yl]pyridin-4-yl}-4,4-difluoro-D-prolinamide]	330	14.2	4670
NC(=O)[C@@H]1CC(F)(F)CN1c1ccncc1-n1cnc(Cn2nc(-c3ccc(Cl)cc3)n(C[C@H](O)C(F)(F)F)c2=O)n1 [Example 25, 1-{3-[3-({3-(4-Chlorophenyl)-5-oxo-4-[(2S)-3,3,3-trifluoro-2-hydroxypropyl]-4,5-dihydro-1H-1,2,4-triazol-1-yl}methyl)-1H-1,2,4-triazol-1-yl]pyridin-4-yl}-4,4-difluoro-L-prolinamide]	1970	2.5	4900
O=C(Nc1ccncc1-n1cnc(Cn2nc(-c3ccc(Cl)cc3)n(C[C@H](O)C(F)(F)F)c2=O)n1)OCC(F)(F)F [Example 26, 2,2,2-Trifluoroethyl {3-[3-({3-(4-chlorophenyl)-5-oxo-4-[(2S)-3,3,3-trifluoro-2-hydroxypropyl]-4,5-dihydro-1H-1,2,4-triazol-1-yl}methyl)-1H-1,2,4-triazol-1-yl]pyridin-4-yl}carbamate]	58	5.6	323
O=C(CC(F)(F)F)Nc1ccncc1-n1cnc(Cn2nc(-c3ccc(Cl)cc3)n(C[C@H](O)C(F)(F)F)c2=O)n1 [Example 27, N-{3-[3-({3-(4-Chlorophenyl)-5-oxo-4-[(2S)-3,3,3-trifluoro-2-hydroxypropyl]-4,5-dihydro-1H-1,2,4-triazol-1-yl}methyl)-1H-1,2,4-triazol-1-yl]pyridin-4-yl}-3,3,3-trifluoropropanamide]	4.05	69.8	283
CC(=O)Nc1ccncc1-n1cnc(Cn2nc(-c3ccc(Cl)cc3)n(C[C@H](O)C(F)(F)F)c2=O)n1 [Example 28, N-{3-[3-({3-(4-Chlorophenyl)-5-oxo-4-[(2S)-3,3,3-trifluoro-2-hydroxypropyl]-4,5-dihydro-1H-1,2,4-triazol-1-yl}methyl)-1H-1,2,4-triazol-1-yl]pyridin-4-yl}acetamide]	11	35.9	395
